Reference: patent US9227971B2, “Pyrazolo[1,5-a]pyrimidine compounds as mTOR inhibitors” (Merck Sharp & Dohme Corp., priority 2010, dated 2016)
Read-outs that look alike come from different tables or passages of the source.

Experiments:
[1] = tested on: phosphorylated 4E-BP1 Thr37/46 (p4E-BP1 Thr37/46), mTORC1 activity, PC3 cells; test: mTOR target engagement assay, immunofluorescent cell-based, p4E-BP1 Thr37/46 readout (mTORC1 activity); details: Homo sapiens, read-out: p4E-BP1 Thr37/46 IC50
Procedure, shortened: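 Seed PC3 cells overnight; treat with compound dilutions for ninety minutes at 37° C; fix with glyoxal and block; stain with anti-p4E-BP1 Thr37/46 overnight at 4° C, then fluorescent secondary; read fluorescence and fit IC50 against DMSO-only controls.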

[2] = tested on: phosphorylated AKT Ser473 (pAKT S473), mTORC2 activity, PC3 cells; test: mTOR target engagement assay, immunofluorescent cell-based, pAKT S473 readout (mTORC2 activity); details: Homo sapiens
Procedure, shortened: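 After blocking, cells were stained overnight at 4 °C with anti-pAKT S473 antibody, then a fluorescent secondary; inhibition was read as reduced fluorescence intensity.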

[3] = PC-3, PC3 cells, compound treatment ninety minutes at 37° C.

Row | SMILES | IC50 [1, 3] [nM] | IC50 [2, 3] [nM] | further results
1 | CS(=O)(=O)c1c([C@@H]2C[C@H]3CC[C@@H](C2)N3C(=O)CO)nc2c(-c3ccc(-c4ncc[nH]4)nc3)cnn2c1N [Compound 6.6, 1-((1R,3s,5S)-3-(3-(6-(1H-imidazol-2-yl)pyridin-3-yl)-7-amino-6-(methylsulfonyl)pyrazolo [1,5-a]pyrimidin-5-yl)-8-azabicyclo[3.2.1]octan-8-yl)-2-hydroxyethanone] | – | – | IC50 ([1]; PC-3, Table 6-1, PC3 cells): 1 to 100 nM; IC50 ([2]; PC-3, Table 6-1, PC3 cells): 1 to 100 nM
2 | Nc1cc([C@@H]2C[C@H]3CC[C@@H](C2)N3C(=O)[C@H]2CCCN2)nc2c(-c3ccc(-c4ccccc4)nc3)cnn12 [Compound 2.19, ((1R,3S,5S)-3-(7-amino-3-(6-phenylpyridin-3-yl)pyrazolo[1,5-a]pyrimidin-5-yl)-8-azabicyclo[3.2.1]octan-8-yl)((R)-pyrrolidin-2-yl)methanone] | 1000 to 10000 | 100 to 1000 | –
3 | CC(=O)c1c([C@@H]2C[C@H]3CC[C@@H](C2)N3C(C)=O)nc2c(-c3ccc(-c4ncc[nH]4)nc3)cnn2c1N [Compound 6.18, 1-(3-(6-(1H-imidazol-2-yl)pyridin-3-yl)-5-((1R,3s,5S)-8-acetyl-8-azabicyclo[3.2.1]octan-3-yl)-7-aminopyrazolo[1,5-a]pyrimidin-6-yl)ethanone] | – | – | IC50 ([1]; PC-3, Table 6-1, PC3 cells): 1 to 100 nM; IC50 ([2]; PC-3, Table 6-1, PC3 cells): 1 to 100 nM
4 | N#Cc1ncc(-c2cnn3c(N)cc([C@@H]4C[C@H]5CC[C@@H](C4)N5C(=O)c4nnc[nH]4)nc23)cn1 [Compound 8.95, 5-(5-((1R,3s,5S)-8-(4H-1,2,4-triazole-3-carbonyl)-8-azabicyclo[3.2.1]octan-3-yl)-7-aminopyrazolo[1,5-a]pyrimidin-3-yl)pyrimidine-2-carbonitrile] | – | – | IC50 ([1]; PC-3, PC3 cells): > 10000 nM; IC50 ([2]; PC-3, PC3 cells): > 10000 nM
5 | N#Cc1c([C@@H]2C[C@H]3CC[C@@H](C2)N3C(=O)c2nnc[nH]2)nc2c(-c3ccc(-c4nccs4)nc3)cnn2c1N [Compound 5.3, 5-((1R,3s,5S)-8-(4H-1,2,4-triazole-3-carbonyl)-8-azabicyclo[3.2.1]octan-3-yl)-7-amino-3-(6-(thiazol-2-yl)pyridin-3-yl)pyrazolo[1,5-a]pyrimidine-6-carbonitrile] | 1 to 100 | 1 to 100 | –
6 | CC(=O)c1c([C@@H]2C[C@H]3CC[C@@H](C2)N3C(=O)c2nnc[nH]2)nc2c(-c3cnc(C(C)(C)O)c(C)c3)cnn2c1N [Compound 7.24, 1-(5-((1R,3s,5S)-8-(4H-1,2,4-triazole-3-carbonyl)-8-azabicyclo[3.2.1]octan-3-yl)-7-amino-3-(6-(2-hydroxypropan-2-yl)-5-methylpyridin-3-yl)pyrazolo[1,5-a]pyrimidin-6-yl)ethanone] | 1 to 100 | 1 to 100 | –
7 | CC(=O)c1c([C@H]2CC3CC[C@H](C2)N3C(=O)c2nnc[nH]2)nc2c(-c3cnc4c(c3)OCCC4O)cnn2c1N (stereo partly drawn) [Compound 7.63, 1-(5-((1R,3s,5S)-8-(4H-1,2,4-triazole-3-carbonyl)-8-azabicyclo[3.2.1]octan-3-yl)-7-amino-3-(4-hydroxy-3,4-dihydro-2H-pyrano[3,2-b]pyridin-7-yl)pyrazolo[1,5-a]pyrimidin-6-yl)ethanone] | – | – | IC50 ([1]; PC-3, PC3 cells): 1 to 100 nM; IC50 ([2]; PC-3, PC3 cells): 100 to 1000 nM
8 | CC(=O)c1c([C@@H]2C[C@H]3CC[C@@H](C2)N3C(N)=O)nc2c(-c3ccc(-c4ccccc4F)nc3)cnn2c1N [Compound 1.1.174, (1R,3s,5S)-3-(6-acetyl-7-amino-3-(6-(2-fluorophenyl)pyridin-3-yl)pyrazolo[1,5-a]pyrimidin-5-yl)-8-azabicyclo[3.2.1]octane-8-carboxamide] | 1 to 100 | 1 to 100 | –
9 | CC(=O)c1c([C@@H]2C[C@H]3CC[C@@H](C2)N3C(=O)CO)nc2c(-c3cnn(-c4ccccn4)c3)cnn2c1N [Compound 1.1.162, 1-((1R,3s,5S)-3-(6-acetyl-7-amino-3-(1-(pyridin-2-yl)-1H-pyrazol-4-yl)pyrazolo[1,5-a]pyrimidin-5-yl)-8-azabicyclo[3.2.1]octan-8-yl)-2-hydroxyethanone] | 100 to 1000 | 100 to 1000 | –
10 | CC(=O)c1c([C@@H]2C[C@H]3CC[C@@H](C2)N3C(=O)CO)nc2c(-c3ccc(-c4nn(C)cc4F)nc3)cnn2c1N [Compound 1.1.94, 1-((1R,3s,5S)-3-(6-acetyl-7-amino-3-(6-(4-fluoro-1-methyl-1H-pyrazol-3-yl)pyridin-3-yl)pyrazolo[1,5-a]pyrimidin-5-yl)-8-azabicyclo[3.2.1]octan-8-yl)-2-hydroxyethanone] | 100 to 1000 | 100 to 1000 | –
11 | CS(=O)(=O)c1c([C@H]2CC3CC[C@H](C2)N3C(=O)c2nnc[nH]2)nc2c(-c3cnc4c(c3)CCC4O)cnn2c1N (stereo partly drawn) [Compound 7.62, ((1R,3s,5S)-3-(7-amino-3-(7-hydroxy-6,7-dihydro-5H-cyclopenta[b]pyridin-3-yl)-6-(methylsulfonyl)pyrazolo [1,5-a]pyrimidin-5-yl)-8-azabicyclo[3.2.1]octan-8-yl)(4H-1,2,4-triazol-3-yl)methanone] | – | – | IC50 ([1]; PC-3, PC3 cells): 1000 to 10000 nM; IC50 ([2]; PC-3, PC3 cells): 1000 to 10000 nM
12 | Nc1cc([C@@H]2C[C@H]3CC[C@@H](C2)N3C(=O)c2nnc[nH]2)nc2c(-c3ccc(-c4ccccc4F)nc3)cnn12 [Compound 2.16, ((1R,3s,5S)-3-(7-amino-3-(6-(2-fluorophenyl)pyridin-3-yl)pyrazolo[1,5-a]pyrimidin-5-yl)-8-azabicyclo[3.2.1]octan-8-yl)(4H-1,2,4-triazol-3-yl)methanone] | 100 to 1000 | 100 to 1000 | –
13 | CC(=O)c1c([C@@H]2C[C@H]3CC[C@@H](C2)N3C(=O)c2nnc[nH]2)nc2c(-c3ccc(-c4ccc(F)cc4F)nc3)cnn2c1N [Compound 1.1.148, 1-(5-((1R,3s,5S)-8-(4H-1,2,4-triazole-3-carbonyl)-8-azabicyclo[3.2.1]octan-3-yl)-7-amino-3-(6-(2,4-difluorophenyl)pyridin-3-yl)pyrazolo[1,5-a]pyrimidin-6-yl)ethanone] | 1 to 100 | 1 to 100 | –
14 | Nc1c(C2CC2)c([C@@H]2C[C@H]3CC[C@@H](C2)N3C(=O)c2nnc[nH]2)nc2c(-c3cnn(-c4ccccc4)c3)cnn12 [Compound 4.26, ((1R,3s,5S)-3-(7-amino-6-cyclopropyl-3-(1-phenyl-1H-pyrazol-4-yl)pyrazolo[1,5-a]pyrimidin-5-yl)-8-azabicyclo[3.2.1]octan-8-yl)(4H-1,2,4-triazol-3-yl)methanone] | 100 to 1000 | 1 to 100 | –
15 | CC(=O)c1c([C@@H]2C[C@H]3CC[C@@H](C2)N3C(=O)CO)nc2c(-c3cnc(-c4ccccc4)c(O)c3)cnn2c1N [Compound 1.1.32, 1-((1R,3s,5S)-3-(6-acetyl-7-amino-3-(5-hydroxy-6-phenylpyridin-3-yl)pyrazolo[1,5-a]pyrimidin-5-yl)-8-azabicyclo[3.2.1]octan-8-yl)-2-hydroxyethanone] | 1000 to 10000 | 1000 to 10000 | –
16 | CC(=O)c1c([C@@H]2C[C@H]3CC[C@@H](C2)N3C(=O)C(C)F)nc2c(-c3ccc(-c4ncc[nH]4)nc3)cnn2c1N (stereo partly drawn) [Compound 6.23, 1-((1R,3s,5S)-3-(3-(6-(1H-imidazol-2-yl)pyridin-3-yl)-6-acetyl-7-aminopyrazolo[1,5-a]pyrimidin-5-yl)-8-azabicyclo[3.2.1]octan-8-yl)-2-fluoropropan-1-one] | – | – | IC50 ([1]; PC-3, Table 6-1, PC3 cells): 100 to 1000 nM; IC50 ([2]; PC-3, Table 6-1, PC3 cells): 1 to 100 nM
17 | CS(=O)(=O)c1c([C@@H]2C[C@H]3CC[C@@H](C2)N3C(N)=O)nc2c(-c3ccc(-c4ccccc4)nc3)cnn2c1N [Compound 3.10, (1R,3s,5S)-3-(7-amino-6-(methylsulfonyl)-3-(6-phenylpyridin-3-yl)pyrazolo[1,5-a]pyrimidin-5-yl)-8-azabicyclo[3.2.1]octane-8-carboxamide] | – | – | IC50 ([1]; PC-3, Table 3-1, PC3 cells): 1 to 100 nM; IC50 ([2]; PC-3, Table 3-1, PC3 cells): 1 to 100 nM
18 | Nc1cc([C@]2(O)C[C@H]3CC[C@@H](C2)N3C(=O)c2nnc[nH]2)nc2c(-c3ccc(-c4ccccc4)nc3)cnn12 [Compound 8.23, ((1R,3r,5S)-3-(7-amino-3-(6-phenylpyridin-3-yl)pyrazolo[1,5-a]pyrimidin-5-yl)-3-hydroxy-8-azabicyclo[3.2.1]octan-8-yl)(4H-1,2,4-triazol-3-yl)methanone] | – | – | IC50 ([1]; PC-3, PC3 cells): 1000 to 10000 nM; IC50 ([2]; PC-3, PC3 cells): 1000 to 10000 nM
19 | CC(=O)c1c([C@@H]2C[C@H]3CC[C@@H](C2)N3C(=O)c2nnc[nH]2)nc2c(-c3ccc(-c4c(F)cccc4F)nc3)cnn2c1N [Compound 1.1.147, 1-(5-((1R,3s,5S)-8-(4H-1,2,4-triazole-3-carbonyl)-8-azabicyclo[3.2.1]octan-3-yl)-7-amino-3-(6-(2,6-difluorophenyl)pyridin-3-yl)pyrazolo[1,5-a]pyrimidin-6-yl)ethanone] | 1 to 100 | 1 to 100 | –
20 | CC(=O)c1c([C@@H]2C[C@H]3CC[C@@H](C2)N3C(=O)c2nnc[nH]2)nc2c(-c3ccc([C@@H](C)O)cc3)cnn2c1N [Compound 7.21, 1-(5-((1R,3s,5S)-8-(4H-1,2,4-triazole-3-carbonyl)-8-azabicyclo[3.2.1]octan-3-yl)-7-amino-3-(4-((R)-1-hydroxyethyl)phenyl)pyrazolo[1,5-a]pyrimidin-6-yl)ethanone] | 1 to 100 | 1 to 100 | –
21 | COc1ccc(-c2ccc(-c3cnn4c(N)cc([C@@H]5C[C@H]6CC[C@@H](C5)N6C(=O)CO)nc34)cn2)cc1CO [Compound 2.7, 1-((1R,3s,5S)-3-(7-amino-3-(6-(3-(hydroxymethyl)-4-methoxyphenyl)pyridin-3-yl)pyrazolo[1,5-a]pyrimidin-5-yl)-8-azabicyclo[3.2.1]octan-8-yl)-2-hydroxyethanone] | 100 to 1000 | 100 to 1000 | –
